Data from US20230346670A1, “Prebiotic Oral Care Compositions and Methods” (Colgate-Palmolive Company, priority 2020, published 2023).
Marks after values point to notes of the source that are not given here.

Legend:
Format in all cases: cell-based
[1] = system: P. gingivalis virulence genes; assay: Virulence gene expression in multi-species biofilm (SYBR RT-qPCR); conditions: relative to control, 2^-ΔΔCt, n = 3
Method: (§1) Biofilms are grown vertically on Calcium Deficient Hydroxyapatite (CAD-HA) disks (Hitemco Medical, Old Bethpage, USA) using the Amsterdam Active Adhesion model. Biofilms are allowed to establish during 24 h (37° C., 170 rpm) under microaerophilic conditions (6% O2, 7% CO2, 7% H2, 80% N2). After this 24 h, disks are rinsed 3 times a day for 3 minutes (RT, 250 rpm), for 3 consecutive days, by transferring the lid containing the disks to a new 24-well plate containing 2 mL/well of the appropriate substrate solution. As a negative control, PBS (pH 5.7) without substrate supplementation is used.
(§2) The virulence of the substrate-treated multi-species biofilms are evaluated by analyzing the relative expression of 33 genes that are recognized as being related to some form of virulence and from 4 periodontal pathogens.
(§3) Expression of bacterial virulence genes is analyzed through SYBR RT-qPCR and normalized for bacterial housekeeping gene expression. […] These effects are illustrated in Tables 6a and 6b:
(§4) Note, for Tables 6a and 6b, that fold changes in virulence gene expression are determined relative to the control condition through the 2^^-ΔΔCt method and are shown as the geometric mean (C.I.) (n = 3) of the 2^^-ΔΔ ^Ct values. All substrates are dissolved in PBS at a concentration of 1 M (upper part) or 1%(w/v) (lower part). Values between 0 and 1 represent relative downregulation, values >1 represent relative upregulation. […] NADG: N-acetyl-D-glucosamine; C.I.: 95% confidence interval.

[2] = system: A. actinomycetemcomitans virulence genes; assay: as above
Method: as §1, §2, §3, §4

V. parvula = assay: Multi-species biofilm composition, absolute abundance (Geq/mL); conditions: for absolute abundance of V. parvula (VP), mean ± SD log (Geq/mL): repeated rinsing
Method: as §1
(§5) N-acetyl-D-glucosamine (NADG), α-D-lactose, D-(+)-trehalose and D-(+)-raffinose are selected to determine their effects on multi-species biofilm composition. […] decrease in absolute numbers in at least four of the pathogenic bacterial species tested in the assay, in comparison to the control, the results of which are described in Table 1 below. Note, NADG decreased absolute numbers of S. sobrinus. Absolute abundances of bacterial species are shown as mean ± SD (n = 3) logarithmic values of the genome equivalents per millilitre (log(Geq/mL)).

S. salivarius = assay: as above; conditions: repeated rinsing
Method: as §1, §5

S. sanguinis = assay: as above; conditions: repeated rinsing
Method: as §1, §5

F. nucleatum = assay: as above; conditions: repeated rinsing
Method: as §1, §5

S. mutans = assay: as above; conditions: repeated rinsing
Method: as §1, §5

A. viscosus = assay: as above; conditions: for absolute abundance of A. viscosus (Av), mean ± SD log (Geq/mL): repeated rinsing
Method: as §1, §5

[3] = system: multi-species biofilm (beneficial/commensal species, periodontal pathogens, cariogenic pathogens); assay: Multi-species biofilm composition, relative proportions and group changes
Method: Biofilms are grown vertically on Calcium Deficient Hydroxyapatite (CAD-HA) disks (Hitemco Medical, Old Bethpage, USA) using the Amsterdam Active Adhesion model. […] After this 24 h, disks are rinsed 3 times a day for 3 minutes (RT, 250 rpm), for 3 consecutive days, by transferring the lid containing the disks to a new 24-well plate containing 2 mL/well of the appropriate substrate solution. As a negative control, PBS (pH 5.7) without substrate supplementation is used. N-acetyl-D-glucosamine (NADG), α-D-lactose, D-(+)-trehalose and D-(+)-raffinose are selected to determine their effects on multi-species biofilm composition. Repeated rinsing of the biofilms with the substrates at a concentration of 1 M results in a significant decrease in absolute numbers in at least four of the pathogenic bacterial species tested in the assay, in comparison to the control, the results of which are described in Table 1 below. Note, NADG decreased absolute numbers of S. sobrinus. Absolute abundances of bacterial species are shown as mean ± SD (n = 3) logarithmic values of the genome equivalents per millilitre (log(Geq/mL)).

[4] = system: F. nucleatum virulence genes; assay: Virulence gene expression in multi-species biofilm (SYBR RT-qPCR); conditions: relative to control = 1, 2^-ΔΔCt, n = 3
Method: as §1, §2, §3
as §4, with “Table 6c,” for “Tables 6a and 6b, that”, “2^^-ΔΔCt” for “2^^-ΔΔ ^Ct”

[5] = lower part of Table 6a, substrate 1%(w/v), relative to control = 1
[6] = substrate 1 M, relative to control = 1, 2^-ΔΔCt, n = 3
[7] = Table 1a, substrate 1 M, listed as D-(+)-trehalose
[8] = Table 3, separate experiments, concentration not given

OC[C@H]1O[C@H](O[C@H]2O[C@H](CO)[C@@H](O)[C@H](O)[C@H]2O)[C@H](O)[C@@H](O)[C@@H]1O [D-trehalose, D-(+)-trehalose]
fold change in fimA expression, geometric mean (95% C.I.) ([1]; substrate 1 % (w/v)): 1.58 (0.86-2.90) fold | fold change in kgp expression, geometric mean (95% C.I.) ([1]; substrate 1 % (w/v)): 3.24 (1.63-6.44)^∗ fold | fold change in partC expression, geometric mean (95% C.I.) ([1]; substrate 1 % (w/v)): 0.71 (0.37-1.35) fold | fold change in rgpA expression, geometric mean (95% C.I.) ([1]; substrate 1 % (w/v)): 1.49 (0.69-3.22) fold | fold change in kgp expression, geometric mean (95% C.I.) ([1]; substrate 1 % (w/v), listed as D-(+)-trehalose): approximately 3.2 fold | fold change in fimA expression, geometric mean (95% C.I.) ([1]; substrate 1 M): 0.13 (0.02-0.96)^∗ fold | fold change in kgp expression, geometric mean (95% C.I.) ([1]; substrate 1 M): <LOD | fold change in partC expression, geometric mean (95% C.I.) ([1]; substrate 1 M): 0.03 (0.00-0.49)^∗ fold | fold change in rgpA expression, geometric mean (95% C.I.) ([1]; substrate 1 M): 0.00 (0.00-0.02)^∗ fold | fold change in aae expression, geometric mean (95% C.I.) [2, 5]: 0.95 (0.33-2.78) fold | fold change in apaH expression, geometric mean (95% C.I.) [2, 5]: 0.64 (0.37-1.10) fold | fold change in cdtB expression, geometric mean (95% C.I.) [2, 5]: 0.67 (0.51-0.89) fold | fold change in emaA expression, geometric mean (95% C.I.) [2, 5]: 0.67 (0.49-0.90) fold | fold change in flp expression, geometric mean (95% C.I.) [2, 5]: 0.48 (0.07-3.50) fold | fold change in ltxA expression, geometric mean (95% C.I.) [2, 5]: 0.08 (0.01-0.73)^∗ fold | fold change in omp29 expression, geometric mean (95% C.I.) [2, 5]: 0.51 (0.19-1.34)^∗ fold | fold change in omp100 expression, geometric mean (95% C.I.) [2, 5]: 0.43 (0.26-0.72)^∗ fold | fold change in orf859 expression, geometric mean (95% C.I.) [2, 5]: 1.04 (0.53-2.03) fold | fold change in pgA expression, geometric mean (95% C.I.) [2, 5]: 0.91 (0.81-1.03) fold | fold change in vapA expression, geometric mean (95% C.I.) [2, 5]: 1.02 (0.87-1.21) fold | fold change in vppA expression, geometric mean (95% C.I.) [2, 5]: 0.48 (0.42-0.55)^∗ fold | fold change in aae expression, geometric mean (95% C.I.) [2, 6]: 0.03 (0.01-0.15)^∗ fold | fold change in apaH expression, geometric mean (95% C.I.) [2, 6]: 0.16 (0.04-0.56)^∗ fold | fold change in cdtB expression, geometric mean (95% C.I.) [2, 6]: 0.08 (0.03-0.21)^∗ fold | fold change in emaA expression, geometric mean (95% C.I.) [2, 6]: 0.11 (0.04-0.32)^∗ fold | fold change in flp expression, geometric mean (95% C.I.) [2, 6]: 0.71 (0.30-1.67) fold | fold change in ltxA expression, geometric mean (95% C.I.) [2, 6]: 0.01 (0.00-0.01)^∗ fold | fold change in omp29 expression, geometric mean (95% C.I.) [2, 6]: 0.74 (0.18-3.00) fold | fold change in omp100 expression, geometric mean (95% C.I.) [2, 6]: 0.09 (0.01-1.11)^∗ fold | fold change in orf859 expression, geometric mean (95% C.I.) [2, 6]: 0.14 (0.02-0.87)^∗ fold | fold change in pgA expression, geometric mean (95% C.I.) [2, 6]: 18.24 (5.89-56.51)^∗ fold | fold change in vapA expression, geometric mean (95% C.I.) [2, 6]: 0.32 (0.08-1.26)^∗ fold | fold change in vppA expression, geometric mean (95% C.I.) [2, 6]: 0.32 (0.01-4.50)^∗ fold | fold change in pgA expression, geometric mean (95% C.I.) ([2]; substrate 1 M, relative to control = 1, 2^-ΔΔCt, n = 3, listed as D-(+)-trehalose): 18.2 fold | absolute abundance of V. parvula (VP), mean ± SD log (Geq/mL) (V. parvula; substrate 1% (w/v)): 10.07 ± 0.28 log (Geq/mL) | reduction of V. parvula numbers in comparison to the control (V. parvula; substrate 1 M): ~ 0.7 log(Geq/mL) | absolute abundance of V. parvula (VP), mean ± SD log (Geq/mL) (V. parvula; substrate 1 M in PBS, n = 3): 9.44 ± 0.25^∗ log (Geq/mL) | absolute abundance of S. salivarius, mean ± SD log (Geq/mL) (S. salivarius; substrate 1% (w/v)): 2.65 ± 0.00 log (Geq/mL) | absolute abundance of S. salivarius, mean ± SD log (Geq/mL) (S. salivarius; substrate 1 M in PBS, n = 3): 6.19 ± 0.07^∗ log (Geq/mL) | absolute abundance of S. sanguinis, mean ± SD log (Geq/mL) (S. sanguinis; substrate 1% (w/v)): 8.42 ± 0.43 log (Geq/mL) | absolute abundance of S. sanguinis, mean ± SD log (Geq/mL) (S. sanguinis; substrate 1 M in PBS, n = 3): 6.43 ± 0.97 log (Geq/mL) | absolute abundance of F. nucleatum (Fn), mean ± SD log (Geq/mL) (F. nucleatum; substrate 1% (w/v)): 9.35 ± 0.20 log (Geq/mL) | absolute abundance of F. nucleatum (Fn), mean ± SD log (Geq/mL) (F. nucleatum; substrate 1 M in PBS, n = 3): 6.51 ± 0.43^∗ log (Geq/mL) | absolute abundance of S. mutans, mean ± SD log (Geq/mL) (S. mutans; substrate 1% (w/v)): 7.55 ± 0.25 log (Geq/mL) | absolute abundance of S. mutans, mean ± SD log (Geq/mL) (S. mutans; substrate 1 M in PBS, n = 3): 8.50 ± 0.29^∗ log (Geq/mL) | absolute abundance of A. viscosus (Av), mean ± SD log (Geq/mL) (A. viscosus; substrate 1% (w/v)): 8.04 ± 0.28 log (Geq/mL) | decrease in A. viscosus numbers in comparison to the control (A. viscosus; substrate 1 M): 1.9-2.5 log(Geq/mL) | absolute abundance of A. viscosus (Av), mean ± SD log (Geq/mL) (A. viscosus; substrate 1 M in PBS, n = 3): 6.05 ± 1.12^∗ log (Geq/mL) | relative proportion of beneficial or commensal species in biofilm ([3]; Table 1a, substrate 1 M): 88.98 (+/- 9.12)^∗ % (Geq/mL) | relative proportion of cariogenic pathogens in biofilm ([3]; Table 1a, substrate 1 M): 9.22 (+/- 8.55) % (Geq/mL) | relative proportion of periodontal pathogens in biofilm ([3]; Table 1a, substrate 1 M): 1.80 (+/- 1.04)^∗ % (Geq/mL) | relative proportion of beneficial or commensal species in biofilm [3, 7]: 88.98±9.12 % (Geq/mL) | relative proportion of cariogenic pathogens in biofilm [3, 7]: 9.22±8.55 % (Geq/mL) | relative proportion of periodontal pathogens in biofilm [3, 7]: 1.80±1.04 % (Geq/mL) | relative proportion of beneficials/commensals in biofilm [3, 8]: 73.55 (+/- 2.84) % (Geq/mL) | relative proportion of cariogenic pathogens in biofilm [3, 8]: 0.21 (+/- 0.05) % (Geq/mL) | relative proportion of periodontal pathogens in biofilm [3, 8]: 26.23 (+/- 2.88) % (Geq/mL) | fold change in ABC transp. perm. (ABC transporter permease) expression, geometric mean (95% C.I.) ([4]; substrate 1% (w/v)): 0.40 (0.15-1.03)^∗ fold | fold change in EF-G expression, geometric mean (95% C.I.) ([4]; substrate 1% (w/v)): 0.12 (0.03-0.55)^∗ fold | fold change in but. -coA transf. (butyrate-acetoacetate CoA-transferase) expression, geometric mean (95% C.I.) ([4]; substrate 1% (w/v)): 0.40 (0.05-3.27) fold | fold change in hemin receptor expression, geometric mean (95% C.I.) ([4]; substrate 1% (w/v)): 0.16 (0.05-0.50)^∗ fold | fold change in hemolysin expression, geometric mean (95% C.I.) ([4]; substrate 1% (w/v)): 0.65 (0.15-2.70) fold | fold change in ompA expression, geometric mean (95% C.I.) ([4]; substrate 1% (w/v)): 0.84 (0.21-3.35) fold | fold change in transposase expression, geometric mean (95% C.I.) ([4]; substrate 1% (w/v)): 1.02 (0.33-3.12) fold | fold change in ABC transp. perm. (ABC transporter permease) expression, geometric mean (95% C.I.) ([4]; substrate 1 M): 32.18 (21.08-49.14)^∗ fold | fold change in EF-G expression, geometric mean (95% C.I.) ([4]; substrate 1 M): 1.18 (0.46-3.02) fold | fold change in but. -coA transf. (butyrate-acetoacetate CoA-transferase) expression, geometric mean (95% C.I.) ([4]; substrate 1 M): 4.28 (1.32-13.86)* fold | fold change in hemin receptor expression, geometric mean (95% C.I.) ([4]; substrate 1 M): 41.19 (20.31-83.52)^∗ fold | fold change in hemolysin expression, geometric mean (95% C.I.) ([4]; substrate 1 M): 12.15 (7.73-19.10)^∗ fold | fold change in ompA expression, geometric mean (95% C.I.) ([4]; substrate 1 M): 1.23 (0.98-1.53) fold | fold change in transposase expression, geometric mean (95% C.I.) ([4]; substrate 1 M): 106.44 (42.35-267.50)^∗ fold
